From the supplement of paper PMC10307832

Assays:
Experiment in all cases: relative viability (nuclei count vs DMSO), 5 days (fraction); higher = more cells survive
IDH-C35 + Linsitinib = compound: Cc1ccccc1C(C(=O)NC1CCCCC1)N(C(=O)Cn1ccnc1C)c1cccc(F)c1 [IDH-C35] + C[C@]1(O)C[C@@H](c2nc(-c3ccc4ccc(-c5ccccc5)nc4c3)c3c(N)nccn32)C1 [Linsitinib] (partner 1 µM)
How it was run: (§1)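 Relative viability is defined as nuclei in treated wells over nuclei in vehicle wells. Duplicate plates were run and medians reported. Lung cancer cell lines in 1536-well plates were dosed by pin tool one day after seeding, with one drug or with a fixed anchor-drug dose plus five library-drug doses (not always all listed) in √10 steps, and nuclei were counted after 5 days.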

IDH-C35 + Decitabine = compound: Cc1ccccc1C(C(=O)NC1CCCCC1)N(C(=O)Cn1ccnc1C)c1cccc(F)c1 [IDH-C35] + Nc1ncn([C@H]2C[C@H](O)[C@@H](CO)O2)c(=O)n1 [Decitabine] (partner 2 µM)
How it was run: as §1

IDH-C35 + Trametinib = compound: Cc1ccccc1C(C(=O)NC1CCCCC1)N(C(=O)Cn1ccnc1C)c1cccc(F)c1 [IDH-C35] + CC(=O)Nc1cccc(-n2c(=O)n(C3CC3)c(=O)c3c(Nc4ccc(I)cc4F)n(C)c(=O)c(C)c32)c1 [Trametinib] (partner 0.02 µM)
How it was run: as §1

[1] = compound: CC1=C(C(=NN1)C)CC2=C(C3=C(S2)N(C(=O)N(C3=O)C)CC(C)C)C(=O)N4C[C@@H](CO4)O + CCNC(=O)c1noc(-c2cc(C(C)C)c(O)cc2O)c1-c1ccc(CN2CCOCC2)cc1 [Luminespib] (partner 0.01 µM)
How it was run: as §1

Cell Line	relative viability (IDH-C35 + Linsitinib; first compound 0.08 µM)	relative viability (IDH-C35 + Linsitinib; first compound 0.253 µM)	relative viability (IDH-C35 + Linsitinib; first compound 0.8 µM)	relative viability (IDH-C35 + Linsitinib; first compound 2.53 µM)	relative viability (IDH-C35 + Linsitinib; first compound 8 µM)	relative viability (IDH-C35 + Decitabine; first compound 0.08 µM)	relative viability (IDH-C35 + Decitabine; first compound 0.253 µM)	relative viability (IDH-C35 + Decitabine; first compound 0.8 µM)	relative viability (IDH-C35 + Decitabine; first compound 2.53 µM)	relative viability (IDH-C35 + Decitabine; first compound 8 µM)	relative viability (IDH-C35 + Trametinib; first compound 0.08 µM)	relative viability (IDH-C35 + Trametinib; first compound 0.253 µM)	relative viability (IDH-C35 + Trametinib; first compound 0.8 µM)	relative viability (IDH-C35 + Trametinib; first compound 2.53 µM)	relative viability (IDH-C35 + Trametinib; first compound 8 µM)	relative viability ([1]; first compound 0.0025 µM)	relative viability ([1]; first compound 0.007906 µM)	relative viability ([1]; first compound 0.025 µM)	relative viability ([1]; first compound 0.07906 µM)	relative viability ([1]; first compound 0.25 µM)
HCC-366	0.619	0.647	0.553	0.601	0.606	0.359	0.344	0.403	0.288	0.324	0.293	0.376	0.407	0.303	0.31	–	–	–	–	–
HCC-827	0.99	0.889	0.98	0.837	1	0.309	0.318	0.282	0.317	0.296	0.525	0.583	0.462	0.519	0.512	0.748	0.445	0.56	0.513	0.482
HOP-62	1.15	0.803	0.924	–	1.01	0.175	0.237	0.229	0.206	0.206	0.395	0.353	0.424	0.33	0.384	0.892	1.01	0.809	0.824	0.986
IA-LM	0.876	0.776	0.628	0.621	0.589	–	–	–	–	–	–	–	–	–	–	–	–	–	–	–
LC-2-ad	0.867	0.829	0.774	0.875	0.886	0.73	0.839	0.847	0.764	0.782	0.87	0.923	0.954	0.874	0.905	0.967	1.13	0.968	1.01	1.17
LCLC-97TM1	0.209	0.194	0.179	–	0.193	0.219	0.247	0.255	–	0.238	0.183	0.2	0.21	–	0.243	0.611	0.774	0.889	0.698	0.801
LCLC-103H	1.21	1.01	0.98	1.13	1.07	0.81	0.676	0.726	0.744	0.834	0.704	0.672	0.727	0.656	0.7	0.966	0.885	0.976	0.939	1.1
LK-2	0.679	0.465	0.43	0.746	0.619	0.327	0.368	0.205	0.395	0.289	0.719	0.762	0.735	0.779	0.745	0.219	0.148	0.223	0.202	0.186
LOU-NH91	0.944	0.998	0.968	0.927	0.973	0.808	0.799	0.795	0.767	0.799	0.804	0.785	0.781	0.742	0.803	0.371	0.359	0.331	0.363	0.223
